Source: ChEMBL document CHEMBL3886628, “Substituted 3-(biphenyl-3-yl)-4-hydroxy-8-methoxy-1-azaspiro[4.5]dec-3-en-2-one” (2016)
Several values for one entry are separate records, joined by “and”; a condition that tells them apart may be missing. Equal entries are not always repeated.

Experiments:
Acetyl-CoA carboxylase 1 = Acetyl-CoA carboxylase 1 (Homo sapiens, UniProt Q13085); experiment: Typical concentrations were in the range of 1.75 μl.
Acetyl-CoA carboxylase 2 = Acetyl-CoA carboxylase 2 (Homo sapiens, UniProt O00763)
Chain of Acetyl-CoA carboxylase 2 (O00763 whole entry): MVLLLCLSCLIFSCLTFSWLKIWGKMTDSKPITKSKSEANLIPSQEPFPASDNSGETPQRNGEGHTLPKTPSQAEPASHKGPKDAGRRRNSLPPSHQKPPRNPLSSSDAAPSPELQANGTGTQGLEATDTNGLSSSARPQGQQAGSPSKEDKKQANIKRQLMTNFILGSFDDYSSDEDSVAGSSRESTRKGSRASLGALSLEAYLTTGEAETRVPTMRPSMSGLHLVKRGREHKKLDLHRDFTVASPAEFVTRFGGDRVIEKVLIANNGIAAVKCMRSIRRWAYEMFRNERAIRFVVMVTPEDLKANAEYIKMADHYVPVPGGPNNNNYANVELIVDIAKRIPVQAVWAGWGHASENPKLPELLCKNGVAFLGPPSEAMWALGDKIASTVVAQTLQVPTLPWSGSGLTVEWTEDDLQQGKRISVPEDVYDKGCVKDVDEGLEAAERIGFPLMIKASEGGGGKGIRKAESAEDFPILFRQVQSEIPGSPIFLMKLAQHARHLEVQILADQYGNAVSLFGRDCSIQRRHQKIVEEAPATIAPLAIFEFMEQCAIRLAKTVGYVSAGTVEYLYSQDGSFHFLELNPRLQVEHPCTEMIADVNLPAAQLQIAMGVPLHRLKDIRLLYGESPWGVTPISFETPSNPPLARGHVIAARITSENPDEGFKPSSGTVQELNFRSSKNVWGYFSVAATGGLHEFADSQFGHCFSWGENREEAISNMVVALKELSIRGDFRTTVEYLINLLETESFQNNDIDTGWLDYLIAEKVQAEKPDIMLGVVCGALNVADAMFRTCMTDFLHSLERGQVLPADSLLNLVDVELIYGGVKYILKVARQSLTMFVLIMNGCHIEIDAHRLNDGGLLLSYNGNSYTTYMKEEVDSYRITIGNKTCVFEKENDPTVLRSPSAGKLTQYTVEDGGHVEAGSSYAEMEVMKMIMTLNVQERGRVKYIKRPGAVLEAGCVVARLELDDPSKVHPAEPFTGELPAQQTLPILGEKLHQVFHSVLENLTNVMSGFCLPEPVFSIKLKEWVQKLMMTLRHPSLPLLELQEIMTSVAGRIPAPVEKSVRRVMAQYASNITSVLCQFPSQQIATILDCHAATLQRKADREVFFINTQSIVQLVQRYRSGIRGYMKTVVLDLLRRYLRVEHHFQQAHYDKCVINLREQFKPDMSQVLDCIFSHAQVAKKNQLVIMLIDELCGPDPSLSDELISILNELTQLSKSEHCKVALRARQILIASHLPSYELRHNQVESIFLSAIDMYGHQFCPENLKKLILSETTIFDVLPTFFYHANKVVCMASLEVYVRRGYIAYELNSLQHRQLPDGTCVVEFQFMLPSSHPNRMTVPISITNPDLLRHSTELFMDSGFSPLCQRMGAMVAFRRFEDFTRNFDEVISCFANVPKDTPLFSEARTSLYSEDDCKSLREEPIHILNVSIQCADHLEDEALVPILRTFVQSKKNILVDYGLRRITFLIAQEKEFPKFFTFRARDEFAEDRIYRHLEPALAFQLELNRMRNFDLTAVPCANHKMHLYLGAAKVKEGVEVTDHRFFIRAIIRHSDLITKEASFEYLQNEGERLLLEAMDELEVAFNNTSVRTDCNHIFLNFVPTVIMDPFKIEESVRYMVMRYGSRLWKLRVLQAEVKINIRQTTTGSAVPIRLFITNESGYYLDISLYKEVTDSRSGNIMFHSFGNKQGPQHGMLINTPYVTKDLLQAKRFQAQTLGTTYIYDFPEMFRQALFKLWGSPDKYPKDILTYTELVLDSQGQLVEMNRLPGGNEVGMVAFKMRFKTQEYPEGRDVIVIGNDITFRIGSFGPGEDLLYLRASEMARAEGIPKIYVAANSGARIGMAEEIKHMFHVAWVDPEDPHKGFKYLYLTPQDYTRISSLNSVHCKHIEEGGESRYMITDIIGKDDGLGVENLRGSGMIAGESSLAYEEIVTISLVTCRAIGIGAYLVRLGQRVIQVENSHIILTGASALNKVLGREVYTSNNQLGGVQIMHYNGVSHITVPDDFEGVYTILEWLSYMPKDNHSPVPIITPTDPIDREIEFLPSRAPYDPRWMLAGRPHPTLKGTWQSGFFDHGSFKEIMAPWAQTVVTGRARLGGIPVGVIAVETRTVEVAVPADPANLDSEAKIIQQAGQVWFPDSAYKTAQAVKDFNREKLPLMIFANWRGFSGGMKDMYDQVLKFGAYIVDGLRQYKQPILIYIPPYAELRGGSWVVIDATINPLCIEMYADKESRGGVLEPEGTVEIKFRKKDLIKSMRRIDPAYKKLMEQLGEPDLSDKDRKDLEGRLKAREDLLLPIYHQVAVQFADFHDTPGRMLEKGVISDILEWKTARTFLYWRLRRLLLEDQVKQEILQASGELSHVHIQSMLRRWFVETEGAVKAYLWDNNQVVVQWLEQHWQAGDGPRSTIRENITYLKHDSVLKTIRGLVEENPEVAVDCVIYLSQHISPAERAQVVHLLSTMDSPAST

Row | IC50 (Acetyl-CoA carboxylase 1) | IC50 (Acetyl-CoA carboxylase 2) | SMILES
1 | 231 nM and 244 nM and 44 nM and 67 nM and 78 nM and 162 nM and 186 nM and 99 nM | – | CO[C@]1(C(F)(F)F)CC[C@]2(CC1)NC(=O)C(c1cc(-c3ccc(Cl)cc3)ccc1C)=C2O
2 | 104 nM and 133 nM and 84 nM | – | COC[C@]1(OC)CC[C@@]2(CC1)NC(=O)C(c1cc(-c3ccc(Cl)c(F)c3)ccc1C)=C2O
3 | 92 nM and 119 nM | 2760 nM and 1690 nM and 2010 nM | CO[C@]1(C(F)(F)F)CC[C@]2(CC1)NC(=O)C(c1cc(-c3ccc(Cl)c(F)c3)ccc1C)=C2O
